Results reported in PMC8367633 (Journal of Applied Glycoscience, 2020).

Biological target: T1, Blon_0248 (Bifidobacterium longum, UniProt A0ACD7UNL5)
T1 sequence (A0ACD7UNL5 1-449): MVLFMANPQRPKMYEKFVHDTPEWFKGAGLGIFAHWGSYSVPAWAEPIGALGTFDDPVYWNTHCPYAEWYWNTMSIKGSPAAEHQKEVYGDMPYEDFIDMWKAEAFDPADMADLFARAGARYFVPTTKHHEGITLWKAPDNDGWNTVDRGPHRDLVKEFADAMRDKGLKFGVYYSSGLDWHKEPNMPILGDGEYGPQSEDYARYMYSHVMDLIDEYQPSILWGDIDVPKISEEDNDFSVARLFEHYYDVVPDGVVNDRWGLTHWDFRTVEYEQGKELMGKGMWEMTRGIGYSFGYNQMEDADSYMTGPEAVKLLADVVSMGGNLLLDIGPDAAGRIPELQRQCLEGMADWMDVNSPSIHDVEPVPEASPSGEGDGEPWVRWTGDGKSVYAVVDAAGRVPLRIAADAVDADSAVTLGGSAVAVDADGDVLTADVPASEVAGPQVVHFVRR
Experiment: pNP release, absorbance […] nm
Assay type: biochemical
Conditions: 50 mM sodium acetate pH 6.0, 37 °C

## C[C@@H]1O[C@@H](Oc2ccc([N+](=O)[O-])cc2)[C@@H](O)[C@H](O)[C@@H]1O [pNP-α-Fuc]
  pNP release, absorbance 405 nm: Both proteins specifically hydrolyzed pNP-α-Fuc, but not any of the other pNP-glycosides tested
